Assays:
UGT1A9 = assay: Metabolism of PG based on UGTs, rat liver microsomes with inhibitor niflumic acid; assay type: in vitro ADME; conditions: PG 10 μmol L−1, niflumic acid 10 μmol L−1, p < 0.0001
Experimental: (§1) The incubation mixtures consisted of 1 mg mL^−1 of rat liver microsomes, 1 mmol L^−1 of UDPGA and 10 μmol L^−1 of PG, tris-HCl (pH = 7.4) and inhibitor (pazopanib (50 μmol L^−1)), niflumic acid (10 μmol L^−1), and fluconazole (50 μmol L^−1). The incubation system was the same as that in “2.4.1.,” whereas polydatin (20 μg mL^−1) was selected as the IS. Detection and analysis conditions based on UPLC-QQQ-MS were the same as those in “2.4.2.” The MRM transitions, cone voltage, and collision voltage of the target compounds and IS are shown in Supplementary Table S1.

UGT1A1 = assay: Metabolism of PG based on UGTs, rat liver microsomes with inhibitor pazopanib; assay type: in vitro ADME; conditions: PG 10 μmol L−1, pazopanib 50 μmol L−1, p > 0.05
Experimental: as §1

[1] = Identification of metabolites of PG in vivo (plasma, bile, urine, feces); set-up: species or system rat; conditions: rats
Experimental: Nine Sprague–Dawley (SD) male rats (200 ± 20 g) were purchased from Beijing Vital River Laboratory Animal Technology Co., Ltd. (license number: SCXK (Beijing) 2016-0006).
The plasma samples were the same as in the pharmacokinetic experiment; PGI (9 mg kg^−1) was injected into the tail vein of three rats to collect the bile samples for 0–6 h, and saline (9 mg kg^−1) was injected into the tail vein of three rats to collect the normal bile samples. PGI (9 mg kg^−1) was injected into the tail vein of three rats to collect urine (0–4 h) samples and feces (0–6 h) samples after collecting the blank urine and feces samples. All samples were stored at −80℃ for further analysis.
(§2) Plasma samples: 40 μl of plasma samples at different time points were taken and mixed together in a 2 ml centrifuge tube; 1,280 μl of ice acetonitrile was added. The mixture was vortexed for 3 min and centrifuged at 13,200 × g under 4℃ for 10 min. The supernatant was transferred to another centrifuge tube and dried with nitrogen, re-dissolved with 60 μl of 80% methanol-H2O (v/v). For further LC-MS analysis, 3 μl of the supernatant was injected.
Bile samples: 100 μl of bile sample was taken using a 0.22 μm filter, the mixture was vortexed for 3 min, and centrifuged at 13200 × g under 4℃ for 10 min. For further LC-MS analysis, 3 μl of the supernatant was injected.
Fecal samples: 100 mg of the sample was weighed into a 1.5 ml centrifuge tube, 400 μl of ice acetonitrile was added, and the mixture was vortexed for 3 min and centrifuged at 13,200 × g under 4℃ for 10 min. For further LC-MS analysis, 3 μl of the supernatant was injected.
as §2, with “Urine sample: 600” for “Plasma samples: 40”, “urine sample was” for “plasma samples at different time points were”, “taken out,” for “taken”, “2,400” for “mixed together in a 2 ml centrifuge tube; 1,280”
An ultrahigh-performance liquid chromatography-mass spectrometer (Waters, United States) was performed for separation and detection. A Waters ACQUITY UPLC HSS T3 column (2.1 × 100 mm, 1.8 μm) was employed at 30℃ with a flow rate of 0.3 ml min^−1. The mobile phase consisted of acetonitrile (B) and water containing 0.1% FA ([…]). The following linear gradient was used: 0–0.5 min: 5–7% B; 0.5–2.5 min: 7–8.8% B; 2.5–5.5 min: 8.8–16.9% B; 5.5–14 min: 16.9–24.7% B; 14–23 min: 24.7–52% B; and 23–30 min: 52–95% B.
DDA was performed using the Q Exactive™ hybrid quadrupole–Orbitrap mass spectrometer both in negative and positive mode. […]

metabolism of PG by UGT1A9 (UGT1A9): mainly metabolized by UGT1A9
contribution of UGT1A1 to metabolism of PG (UGT1A1): contributed little or no participation
metabolites in fecal samples [1]: No metabolites were detected
number of metabolites identified in bile ([1]; PGI 9 mg kg−1 tail vein, bile 0–6 h, all phase II): five
number of metabolites identified in plasma ([1]; PGI 9 mg kg−1 tail vein, all phase II metabolites): four
SMILES: OC[C@H]1O[C@@H](Oc2cc(/C=C/c3cc(O)cc(O)c3)ccc2O)[C@H](O)[C@@H](O)[C@@H]1O [PG, Piceatannol-3′-O-β-D-glucopyranoside]
metabolic route of PG in vivo ([1]; PGI 9 mg kg−1 tail vein): mainly undergoes a phase II binding reaction mediated by UGT and SULT

From PMC9344054, “Studies on Chemical Characterization of Ginkgo Amillaria Oral Solution and Its Drug–Drug Interaction With Piceatannol 3′-O-β-D-Glucopyranoside for Injection” (Frontiers in Pharmacology, 2022)
